Key:
FLG mRNA = FLG mRNA expression-increasing effect in NHEK cells, real-time PCR (Example 2); type: cell-based, human; details: 10 nM, with or without calcium priming
Description: In this example, the FLG mRNA expression-increasing effect of Compound 1 or Compound 2 was confirmed by using NHEK cells.
1) 5×10^4 cells/well of NHEK cells (Invitrogen) were plated on a 24-well plate, and then 500 μl of a culture medium containing a medium for proliferating normal human epidermal keratinocytes (HuMedia-KG2, KURABO INDUSTRIES LTD.) supplemented with hEGF (0.1 ng/ml), insulin (10 μg/ml), hydrocortisone (0.5 μg/ml), gentamycin (50 μg/ml), amphotericin B (50 ng/ml), and bovine brain pituitary extract (BPE) (0.4%, v/v) were added to the plate, and the cells were cultured under the conditions of 37° C. and 5% CO2. Next, after culture under the conditions of the following step 2) or 3), a sample was prepared. […]
4) An extraction reagent (TRIzol™, Invitrogen) was used, and according to the manufacturer's protocol, total RNA was extracted from each of cells treated with the medicament (Compound 1 or Compound 2) in the steps 2) and 3). […] Next, real-time PCR was conducted by using the following primers and SYBR™ Premix Ex Taq (Takara) with a CFX96 real-time PCR instrument (Bio-Rad Laboratories, Inc.) according to the manufacturer's protocol, and the amount of FLG mRNA was measured. […]

FLG promoter = experiment: Transcription-activating effect on FLG promoter, luciferase assay in NHEK cells (Example 1); type: cell-based, human; details: 1 μM (Comparative Compound 2: 1 μM or 0.1 μM), 3 days
Description: In this example, the transcription activity on FLG promoter of an N-quinolylbenzamide derivative (Compound 1) was confirmed by using neonatal normal human epidermal keratinocytes (NHEK cells). The transcription activity of the FLG promoter was measured by luciferase assay.
1) 1.2×10^5 cells/ml of NHEK cells (KURABO INDUSTRIES LTD.) were plated on a 96-well plate at 80 μl/well (9.6×10^3 cells/well), and 100 μl of a culture medium containing a medium for proliferating normal human epidermal keratinocytes (HuMedia-KG2, KURABO INDUSTRIES LTD.) supplemented with human epidermal growth factor (hEGF) (0.1 ng/ml), insulin (10 μg/ml), hydrocortisone (0.5 μg/ml), gentamycin (50 μg/ml), amphotericin B (50 ng/ml), and bovine brain pituitary extract (BPE) (0.4%, v/v) were added to the plate, and the cells were cultured under the conditions of 37° C. and 5% CO2. […]
4) 3 days after the addition of the medicament in the step 3), reagents for luciferase assay (Bright-Glo™ Luciferase Assay System, Promega Corporation) were used and the luciferase activity was measured according to the manufacturer's protocol. […] After standing at rest for two minutes, 70 μl thereof were subjected to the measurement of the absorbance of luciferase.

Row | SMILES | FLG mRNA expression (GAPDH ratio) (FLG mRNA) | transcription activity on FLG promoter (FLG promoter)
1 | CC[C@H](C)[C@H]1O[C@]2(CC[C@@H]1C)C[C@@H]1C[C@@H](C/C=C(\C)[C@@H](O[C@H]3C[C@H](OC)[C@@H](O[C@H]4C[C@H](OC)[C@@H](O)[C@H](C)O4)[C@H](C)O3)[C@@H](C)/C=C/C=C3\CO[C@@H]4[C@H](O)C(C)=C[C@@H](C(=O)O1)[C@]34O)O2 [Compound 2, Ivermectin, reference compound] | increases the FLG mRNA expression | 
2 | CCc1ccc(OCc2ccccc2C(=O)Nc2ccc3nc(C)cc(N)c3c2)cc1.Cl [Compound 1, N-(4-Amino-2-methyl-6-quinolyl)-2-[(4-ethylphenoxy)methyl]benzamide hydrochloride] | increases the FLG mRNA expression | had the transcription activity on FLG promoter
3 | O=C(CCCCCN1C(=O)c2cccc3cccc(c23)C1=O)NO [Comparative Compound 2, 6-(1,3-Dioxo-1H,3H-benzo[de]isoquinolin-2-yl)hexanoic acid hydroxyamide, reference compound] |  | the transcription activity on FLG promoter was observed

Source: US20150190416A1, “FILAGGRIN PRODUCTION PROMOTER, THERAPEUTIC AGENT FOR DISEASES ASSOCIATED WITH REDUCTION IN PRODUCTION OF FILAGGRIN, AND METHOD FOR SCREENING FOR SAID THERAPEUTIC AGENT” (KYOTO UNIVERSITY, priority 2012, published 2015)
